These results are taken from patent US20260062412A1, “NITROGEN-CONTAINING HETEROCYCLIC COMPOUND HAVING MYT1 INHIBITORY ACTIVITY” (CHUGAI SEIYAKU KABUSHIKI KAISHA, priority 2023, published 2026).

The target in this test is MYT1 protein (Homo sapiens (Human), UniProt Q99640). The test is described as follows: Test for binding to ATP binding site of MYT1 (Kinase Tracer 178 / Eu-Anti-GST antibody TR-FRET). Particulars: ATP binding site of MYT1, 30 minutes at room temperature.

The structures appear in SMILES notation.

Chain of MYT1 protein (Q99640 whole entry): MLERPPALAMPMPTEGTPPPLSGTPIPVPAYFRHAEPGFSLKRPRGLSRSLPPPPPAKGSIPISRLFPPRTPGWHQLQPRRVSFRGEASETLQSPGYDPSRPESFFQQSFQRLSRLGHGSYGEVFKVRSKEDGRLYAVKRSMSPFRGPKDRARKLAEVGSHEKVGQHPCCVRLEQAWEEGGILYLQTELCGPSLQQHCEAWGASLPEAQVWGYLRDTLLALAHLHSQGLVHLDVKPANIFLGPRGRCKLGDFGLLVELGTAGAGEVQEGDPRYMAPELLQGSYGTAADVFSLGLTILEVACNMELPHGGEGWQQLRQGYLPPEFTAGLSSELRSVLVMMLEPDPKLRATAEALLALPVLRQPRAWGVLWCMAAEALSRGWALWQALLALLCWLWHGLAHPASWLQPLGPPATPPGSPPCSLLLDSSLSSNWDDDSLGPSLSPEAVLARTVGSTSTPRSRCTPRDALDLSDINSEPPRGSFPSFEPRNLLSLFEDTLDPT

As a reminder, the IC50 is the point on the concentration scale where inhibition reaches its midpoint. `Nc1c(-c2cc(F)c(F)c3[nH]ncc23)c2cc(OC3CCC3)c3ncccc3c2[nH]c1=O` [Compound C206, 3-Amino-6-cyclobutyloxy-4-(6,7-difluoro-1H-indazol-4-yl)-1H-1,7-phenanthrolin-2-one] returned an IC50 of 4.1 nM.

The molecule `Cn1cc(-c2cc3c(-c4cc(F)c(F)c5[nH]ncc45)c(N)c(=O)[nH]c3c3cccnc23)cn1` [Compound C207, 3-Amino-4-(6,7-difluoro-1H-indazol-4-yl)-6-(1-methylpyrazol-4-yl)-1H-1,7-phenanthrolin-2-one] had an IC50 of 1 nM.

On to `Nc1c(-c2cc(F)c(F)c3[nH]ncc23)c2cc(N3CCOCC3)c3ncccc3c2[nH]c1=O` [Compound C208, 3-Amino-4-(6,7-difluoro-1H-indazol-4-yl)-6-morpholin-4-yl-1H-1,7-phenanthrolin-2-one], for which the IC50 amounted to 2.1 nM.

`CN1CCN(c2cc3c(-c4cc(F)c(F)c5[nH]ncc45)c(N)c(=O)[nH]c3c3cccnc23)CC1` [Compound C209, 3-Amino-4-(6,7-difluoro-1H-indazol-4-yl)-6-(4-methylpiperazin-1-yl)-1H-1,7-phenanthrolin-2-one]: the IC50 was determined as 1.5 nM.

Molecule `Nc1c(-c2cc(F)c(F)c3[nH]ncc23)c2cc(O[C@H]3C[C@H](F)C3)c3ncccc3c2[nH]c1=O` [Compound C210, 3-Amino-4-(6,7-difluoro-1H-indazol-4-yl)-6-((1r,3r)-3-fluorocyclobutyl)oxy-1H-1,7-phenanthrolin-2-one] came in with an IC50 of 1.3 nM.

As for `N#C[C@H]1C[C@H](Oc2cc3c(-c4cc(F)c(F)c5[nH]ncc45)c(N)c(=O)[nH]c3c3cccnc23)C1` [Compound C211, (1r,3r)-3-[[3-Amino-4-(6,7-difluoro-1H-indazol-4-yl)-2-oxo-1H-1,7-phenanthrolin-6-yl]oxy]cyclobutane-1-carbonitrile], the half-inhibitory concentration (IC50) stood at 0.87 nM.

In turn, `Nc1c(-c2cc(F)c(F)c3[nH]ncc23)c2cc(OCCC(F)F)c3ncccc3c2[nH]c1=O` [Compound C214, 3-Amino-4-(6,7-difluoro-1H-indazol-4-yl)-6-(3,3-difluoropropoxy)-1H-1,7-phenanthrolin-2-one] had an IC50 of 1.7 nM.

`Nc1c(-c2cc(F)c(F)c3[nH]ncc23)c2cc(-c3cccnc3)c3ncccc3c2[nH]c1=O` [Compound C215, 3-Amino-4-(6,7-difluoro-1H-indazol-4-yl)-6-pyridin-3-yl-1H-1,7-phenanthrolin-2-one] returned an IC50 of 2.4 nM.

In the case of `Cc1c(C)c2c(-c3cc(F)c(F)c4[nH]ncc34)c(N)c(=O)[nH]c2c2cccnc12` [Compound C216, 3-Amino-4-(6,7-difluoro-1H-indazol-4-yl)-5,6-dimethyl-1H-1,7-phenanthrolin-2-one], the IC50 was 3.4 nM.

The molecule `Cc1c(C2CC2)c2ncccc2c2[nH]c(=O)c(N)c(-c3cc(F)c(F)c4[nH]ncc34)c12` [Compound C217, 3-Amino-6-cyclopropyl-4-(6,7-difluoro-1H-indazol-4-yl)-5-methyl-1H-1,7-phenanthrolin-2-one] yielded an IC50 of 1.8 nM.

Take `Cc1cc2ncccc2c2[nH]c(=O)c(N)c(-c3cc(F)c(F)c4[nH]ncc34)c12` [Compound C218, 3-Amino-4-(6,7-difluoro-1H-indazol-4-yl)-5-methyl-1H-1,7-phenanthrolin-2-one]: the IC50 came to 0.43 nM.

The molecule `Cc1c(F)c2c(-c3cc(F)c(F)c4[nH]ncc34)c(N)c(=O)[nH]c2c2cccnc12` [Compound C219, 3-Amino-4-(6,7-difluoro-1H-indazol-4-yl)-5-fluoro-6-methyl-1H-1,7-phenanthrolin-2-one] yielded an IC50 of 2.1 nM.

Turning to `Nc1c(-c2cc(F)c(F)c3[nH]ncc23)c2c(F)c(C3CC3)c3ncccc3c2[nH]c1=O` [Compound C220, 3-Amino-6-cyclopropyl-4-(6,7-difluoro-1H-indazol-4-yl)-5-fluoro-1H-1,7-phenanthrolin-2-one], the IC50 is 4.1 nM.

The molecule `Nc1c(-c2cc(F)c(F)c3[nH]ncc23)c2c(F)cc3ncccc3c2[nH]c1=O` [Compound C221, 3-Amino-4-(6,7-difluoro-1H-indazol-4-yl)-5-fluoro-1H-1,7-phenanthrolin-2-one] gave an IC50 of 0.72 nM.

`Cc1cc2c(-c3c(F)cc(F)c4[nH]ncc34)c(N)c(=O)[nH]c2c2cccnc12` [Compound C222, 3-Amino-4-(5,7-difluoro-1H-indazol-4-yl)-6-methyl-1H-1,7-phenanthrolin-2-one] showed an IC50 of 1.4 nM.

As to `Cc1cc2c(-c3nccc4[nH]ncc34)c(N)c(=O)[nH]c2c2cccnc12` [Compound C223, 3-Amino-6-methyl-4-(1H-pyrazolo[4,3-c]pyridin-4-yl)-1H-1,7-phenanthrolin-2-one], the IC50 is 750 nM.

On to `Cc1cc2c(-c3cccc4[nH]nnc34)c(N)c(=O)[nH]c2c2cccnc12` [Compound C224, 3-Amino-4-(1H-benzotriazol-4-yl)-6-methyl-1H-1,7-phenanthrolin-2-one], for which the IC50 amounted to 3000 nM.

Turning to `CC(C)(C)c1cc2c(-c3ccc(F)c4[nH]ncc34)c(N)c(=O)[nH]c2c2cccnc12` [Compound C225, 3-Amino-6-(tert-butyl)-4-(7-fluoro-1H-indazol-4-yl)-1H-1,7-phenanthrolin-2-one], the IC50 is 1000 nM.

As for `Cc1cc2c(-c3ccc(F)c4[nH]ncc34)c(N)c(=O)[nH]c2c2ncccc12` [Compound D3, 3-Amino-4-(7-fluoro-1H-indazol-4-yl)-6-methyl-1H-1,10-phenanthrolin-2-one], the IC50 was 4.6 nM.

Molecule `Nc1c(-c2ccc(F)c3[nH]ncc23)c2ccc3cccnc3c2[nH]c1=O` [Compound D4, 3-Amino-4-(7-fluoro-1H-indazol-4-yl)-1H-1,10-phenanthrolin-2-one] returned an IC50 of 15 nM.

`CCc1cc2c(-c3ccc(F)c4[nH]ncc34)c(N)c(=O)[nH]c2c2ncccc12` [Compound D5, 3-Amino-6-ethyl-4-(7-fluoro-1H-indazol-4-yl)-1H-1,10-phenanthrolin-2-one] had an IC50 of 6.4 nM.

`CN1CCN(c2cc3c(-c4ccc(F)c5[nH]ncc45)c(N)c(=O)[nH]c3c3ncccc23)CC1` [Compound D6, 3-Amino-4-(7-fluoro-1H-indazol-4-yl)-6-(4-methylpiperazin-1-yl)-1H-1,10-phenanthrolin-2-one] registered an IC50 of 2.1 nM.

Consider `Nc1c(-c2ccc(F)c3[nH]ncc23)c2cc(N3CCC(N4CCOCC4)CC3)c3cccnc3c2[nH]c1=O` [Compound D7, 3-Amino-4-(7-fluoro-1H-indazol-4-yl)-6-(4-morpholin-4-ylpiperidin-1-yl)-1H-1,10-phenanthrolin-2-one], for which the IC50 came to 15 nM.

As to `Nc1c(-c2ccc(F)c3[nH]ncc23)c2cc(N3CCC(F)(F)C3)c3cccnc3c2[nH]c1=O` [Compound D8, 3-Amino-6-(3,3-difluoropyrrolidin-1-yl)-4-(7-fluoro-1H-indazol-4-yl)-1H-1,10-phenanthrolin-2-one], the IC50 is 10 nM.

Molecule `Nc1c(-c2ccc(F)c3[nH]ncc23)c2cc(N3CCOCC3)c3cccnc3c2[nH]c1=O` [Compound D9, 3-Amino-4-(7-fluoro-1H-indazol-4-yl)-6-morpholin-4-yl-1H-1,10-phenanthrolin-2-one] showed an IC50 of 22 nM.

With `Nc1c(-c2ccc(F)c3[nH]ncc23)c2cc(N3CC4(COC4)C3)c3cccnc3c2[nH]c1=O` [Compound D10, 3-Amino-4-(7-fluoro-1H-indazol-4-yl)-6-(2-oxa-6-azaspiro[3,3]heptan-6-yl)-1H-1,10-one], the IC50 was found to be 3.9 nM.

`Nc1c(-c2ccc(F)c3[nH]ncc23)c2cc(N3CC(N4CC(F)(F)C4)C3)c3cccnc3c2[nH]c1=O` [Compound D11, 3-Amino-6-[3-(3,3-difluoroazetidin-1-yl)azetidin-1-yl]-4-(7-fluoro-1H-indazol-4-yl)-1H-1,10-phenanthrolin-2-one] yielded an IC50 of 20 nM.

`Nc1c(-c2ccc(F)c3[nH]ncc23)c2cc(N3CCN4CCOC[C@H]4C3)c3cccnc3c2[nH]c1=O` [Compound D12, 6-[(9aR)-3,4,6,7,9,9a-hexahydro-1H-pyrazino[2,1-c][1,4]oxazin-8-yl]-3-amino-4-(7-fluoro-1H-indazol-4-yl)-1H-1,10-phenanthrolin-2-one]: the IC50 stood at 49 nM.

`Nc1c(-c2ccc(F)c3[nH]ncc23)c2cc(N3CCN4CCOC[C@@H]4C3)c3cccnc3c2[nH]c1=O` [Compound D13, 6-[(9aS)-3,4,6,7,9,9a-hexahydro-1H-pyrazino[2,1-c][1,4]oxazin-8-yl]-3-amino-4-(7-fluoro-1H-indazol-4-yl)-1H-1,10-phenanthrolin-2-one]: the IC50 was 25 nM.

The molecule `Nc1c(-c2ccc(F)c3[nH]ncc23)c2cc(N3CCN(CC(F)F)CC3)c3cccnc3c2[nH]c1=O` [Compound D14, 3-Amino-6-[4-(2,2-difluoroethyl)piperazin-1-yl]-4-(7-fluoro-1H-indazol-4-yl)-1H-1,10-phenanthrolin-2-one] registered an IC50 of 33 nM.

Regarding `Nc1c(-c2ccc(F)c3[nH]ncc23)c2cc(N3CCN(CC(F)(F)F)CC3)c3cccnc3c2[nH]c1=O` [Compound D15, 3-Amino-4-(7-fluoro-1H-indazol-4-yl)-6-[4-(2,2,2-trifluoroethyl)piperazin-1-yl]-1H-1,10-phenanthrolin-2-one], the IC50 amounted to 69 nM.

Molecule `CS(=O)(=O)Nc1cc2c(-c3ccc(F)c4[nH]ncc34)c(N)c(=O)[nH]c2c2ncccc12` [Compound D16, N-[8-Amino-7-(7-fluoro-1H-indazol-4-yl)-9-oxo-10H-1,10-phenanthroline-5-yl]methanesulfonamide] showed an IC50 of 2.7 nM.

With `Nc1c(-c2ccc(F)c3[nH]ncc23)c2cc(NS(=O)(=O)C3CC3)c3cccnc3c2[nH]c1=O` [Compound D17, N-[8-amino-7-(7-fluoro-1H-indazol-4-yl)-9-oxo-10H-1,10-phenanthrolin-5-yl]cyclopropanesulfonamide], the IC50 worked out at 3.1 nM.

Molecule `COc1cc2c(-c3ccc(F)c4[nH]ncc34)c(N)c(=O)[nH]c2c2ncccc12` [Compound D18, 3-Amino-4-(7-fluoro-1H-indazol-4-yl)-6-methoxy-1H-1,10-phenanthrolin-2-one] showed an IC50 of 0.25 nM.

The molecule `CC(=O)Nc1cc2c(-c3ccc(F)c4[nH]ncc34)c(N)c(=O)[nH]c2c2ncccc12` [Compound D19, N-[8-amino-7-(7-fluoro-1H-indazol-4-yl)-9-oxo-10H-1,10-phenanthrolin-5-yl]acetamide] returned an IC50 of 22 nM.
